Assay results reported in patent US9315546B2, “Growth hormone secretatogue receptor antagonists and uses thereof” (The Administrators of the Tulane Educational Fund, priority 2010, dated 2016).
pIC50, pKi: −log10 of the molar value. “And” between values parts separate entries of the source, which are not always exact repeats. Equal entries are not always repeated. Values belong to the compound of their own block, whether it stands above or below them. Where a SMILES comes first, the peptide text is derived from it. Where no end group is shown, it is not given here. [ ]: non-standard residue; d: D form. d2Nal = N[C@H](Cc1ccc2ccccc2c1)C(=O)O

Experiments:
[1] = biological target: T1, Ghrelin/GHRP/GHS Receptor (Rattus norvegicus, UniProt O08725); test: In vivo GH release in rat after i.v. peptide (serum GH by RIA)
T1 sequence (O08725 whole entry): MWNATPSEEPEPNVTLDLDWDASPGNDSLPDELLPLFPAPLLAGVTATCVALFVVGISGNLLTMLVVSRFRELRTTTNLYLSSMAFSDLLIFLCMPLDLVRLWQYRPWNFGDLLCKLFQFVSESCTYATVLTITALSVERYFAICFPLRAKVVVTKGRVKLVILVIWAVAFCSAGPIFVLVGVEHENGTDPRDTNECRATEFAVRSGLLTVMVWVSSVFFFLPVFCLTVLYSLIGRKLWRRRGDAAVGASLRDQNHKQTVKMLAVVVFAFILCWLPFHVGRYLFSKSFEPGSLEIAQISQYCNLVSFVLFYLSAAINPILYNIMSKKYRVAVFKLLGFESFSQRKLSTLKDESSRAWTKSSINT
Experimental: For the in vivo assay of GH Release in rat, immature female Sprague Dawley rats were obtained from Charles River from Wilmington, Mass. After arrival they were housed at 25° C. with a 14:10 h light:dark cycle. Water and Purina rat chow were available at libitum. Pups were weaned at 21 days of age.
Immature twenty six day old female Sprague Dawley rats, 3-6 rats per treatment dose, were pretreated with pentobarbital 20 minutes before iv injection of vehicle/peptide or peptide plus stimulator. Injection was made as a 0.1 ml solution. For the non-pentobarbital treated rat assay, peptides were administered iv into the tail vein of conscious rats. All animals were sacrificed by guillotine after iv peptide or vehicle. Trunk blood was collected at +10-15 minutes […], allowed to clot, centrifuged and serum stored until assayed for GH levels by RIA. The GH RIA reagents were distributed by the NIH. Control data was collected from rats treated with only the corresponding vehicle in the absence of peptide or stimulator. Control stimulated data was collected from rats treated with stimulator alone in the absence of any peptide.

[2] = biological target: T1, Ghrelin/GHRP/GHS Receptor; test: GH release from cell culture of pituitary cells; format: cell-based; set-up: After dispersion, the cells were collected by centrifugation, wash with DMEM and placed into culture well; endogenous in cells; host or cells: dispersed primary rat pituitary cells, 4 days in culture
Experimental: In vitro GH Release-Female rats of the CD-1 strain were housed in a constant temperature room at 24° C. with 14 h light and 10 h darkness. The rats were fed Purina Rat chow and water at libitum. All studies were started between 0800-1000 hours. Pituitaries of mature female Sprague Dawley rats were rapidly removed after decapitation, neurointermediate lobe discarded and then placed in a pH 7.4 buffer. The pituitaries were cut into ˜3-mm pieces and then transferred to a flask containing HEPS buffer with trypsin and incubated at 37° C. Cells were triturated several times during this period. After dispersion, the cells were collected by centrifugation, wash with DMEM and placed into culture well. Cell cultures were maintained for 4 days at 37° with 8% CO2 added to the incubator atmosphere. After 4 days in culture, cells were washed with lactated Ringer's solution adjusted to pH 7.2-7.4 and then vehicle, peptide alone or peptide plus stimulator was added to media. Incubation time was 60-120 minutes after which media was removed from each well for GH determination. The GH RIA reagents were distributed by the NIH. Control data was collected from cell cultures treated with only the corresponding vehicle in the absence of peptide or stimulator. Control stimulated data was collected from cell cultures treated with stimulator alone in the absence of any peptide.

[3] = biological target: T2, human ghrelin receptor type 1a (GHS-R1a) (Homo sapiens, UniProt Q92847); test: Receptor binding, displacement of radiolabelled ghrelin, HEK-293 cell membranes; details: for % INH, Ghrelin/GHS Antagonist Receptor Activity: concentration not given
T2 construct: expressed in transfected cells; host or cells: HEK-293 cells (membranes)
T2 sequence (Q92847 whole entry): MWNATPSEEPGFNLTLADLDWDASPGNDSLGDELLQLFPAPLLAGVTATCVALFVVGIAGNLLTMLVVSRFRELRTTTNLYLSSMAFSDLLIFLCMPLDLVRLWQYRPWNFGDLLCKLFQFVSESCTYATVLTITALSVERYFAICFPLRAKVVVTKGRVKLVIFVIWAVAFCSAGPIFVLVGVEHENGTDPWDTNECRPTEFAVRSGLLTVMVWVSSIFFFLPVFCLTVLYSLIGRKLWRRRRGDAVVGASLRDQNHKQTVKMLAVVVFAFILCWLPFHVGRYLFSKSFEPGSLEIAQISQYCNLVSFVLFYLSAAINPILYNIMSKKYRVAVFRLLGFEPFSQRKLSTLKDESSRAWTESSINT

[4] = biological target: T1, Ghrelin/GHRP/GHS Receptor; test: GH release from isolated pituitary glands, pituitary incubation method; format: cell-based
Experimental: Hormonal activities were obtained from in vitro studies using pituitaries of 20 day old CD-1 strain Sprague Dawley female rats. Two pituitaries were incubated for a total of 4-6 hours. Medium was removed each hour for RIA of GH level and fresh medium was added again. After two one hour preincubation periods (P1-P2), the vehicle/peptides were added to two one hour incubations (I3-I4). Peptide activity was calculated as the change in the hormonal level (delta) between I3+I4 and P2. For antagonist activity, the incubation was continued for 2 additional hours (I5-I6) where both the peptide and a stimulator of GH secretion was added and the antagonist activity was calculated as the change in the hormonal level (delta) between I5+I6 and P2. The peptides were assayed in triplicate and the hormone was assayed in duplicate. Each value recorded represents the mean of 6. The GH RIA reagents were distributed by the NIH. Control data was collected from isolated pituitary glands treated with only the corresponding vehicle in the absence of peptide or stimulator. Control stimulated data was collected from isolated pituitary glands treated with stimulator alone in the absence of any peptide.

[5] = biological target: T3, hypothalamic ghrelin receptor (Rattus norvegicus, UniProt O08725); test: Spontaneous and ghrelin-stimulated GH secretion after icv ghrelin analogs in adult male rats; format: in vivo; set-up: from tissue; host or cells: whole animal (adult male rats); details: ghrelin analog 10 μg icv, 6-h sampling
T3 sequence (O08725 whole entry): as the sequence (O08725 whole entry) above
Experimental: (§1) In vivo effects were measured on spontaneous and ghrelin-stimulated GH secrtion over a 6-h sampling period, and food intake monitored hourly over a 5-h period and body weight change over 24 h.

[6] = biological target: T3, hypothalamic ghrelin receptor; test: Food intake and body weight change after icv ghrelin analogs in adult male rats; format: in vivo; set-up: from tissue; host or cells: whole animal (adult male rats); details: ghrelin analog 10 μg icv, monitored hourly over 5 h
Experimental: as §1

[7] = peptide antagonist 30 μg/ml + stimulator His-DTrp-Ala-Trp-DPhe-Lys-NH2 10 ng/ml

Compound: [dA][d2Nal]AW[dF]K-NH2 [reference compound]
Stimulated Control GH release (stimulator alone) ([1]; DAla-DβNal-Ala-Trp-DPhe-Lys-NH2 0.3 μg, rat, Table 2): 1412 ± 400 ng/mL and 2253 ± 252 ng/mL
Stimulated Control GH release (stimulator alone) ([1]; DAla-DβNal-Ala-Trp-DPhe-Lys-NH2 1 μg, rat, Table 2): 3214 ± 276 ng/mL and 3105 ± 429 ng/mL and 2406 ± 288 ng/mL and 2825 ± 134 ng/mL and 3104 ± 429 ng/mL
Stimulated Control GH release (stimulator alone) ([1]; Table 4, Non-Pentobarbital Rats, DAla-DβNal-Ala-Trp-DPhe-Lys-NH2 10 μg): 72 ± 9 ng/mL
Stimulated Control GH release (stimulator alone) ([1]; Table 4, Pentobarbital Rats, DAla-DβNal-Ala-Trp-DPhe-Lys-NH2 0.3 μg): 5052 ± 511 ng/mL
Stimulated Control GH release (stimulator alone) ([1]; Table 4, Pentobarbital Rats, DAla-DβNal-Ala-Trp-DPhe-Lys-NH2 1 μg): 4950 ± 98 ng/mL
Stimulated Control GH release (stimulator alone) ([2]; Table 6, DAla-DβNal-Ala-Trp-DPhe-Lys-NH2 10 ng/ml): 2420 ± 0 ng/mL and 2811 ± 229 ng/mL and 2385 ± 8 ng/mL
Stimulated Control GH release (stimulator alone) ([2]; Table 9, DAla-DβNal-Ala-Trp-DPhe-Lys-NH2 1 ng/ml): 1232 ± 34 ng/mL
Stimulated Control GH release (stimulator alone) ([2]; Table 10, DAla-DβNal-Ala-Trp-DPhe-Lys-NH2 1 ng/ml): 905 ± 6 ng/mL and 1153 ± 36 ng/mL and 1216 ± 26 ng/mL and 1461 ± 58 ng/mL and 1016 ± 18 ng/mL and 859 ± 4 ng/mL and 1060 ± 24 ng/mL
Stimulated Control GH release (stimulator alone) ([2]; Table 11, DAla-DβNal-Ala-Trp-DPhe-Lys-NH2 1 ng/ml): 905 ± 6 ng/mL and 947 ± 11 ng/mL and 947 ± 33 ng/mL and 1016 ± 18 ng/mL

Compound: CSCC[C@H](NC(=O)CN)C(=O)N[C@@H](C)C(=O)N[C@H](C)C(=O)N[C@H](Cc1ccc2ccccc2c1)C(=O)N[C@@H](C)C(=O)N[C@@H](Cc1c[nH]c2ccccc12)C(=O)N[C@H](Cc1ccccc1)C(=O)N[C@@H](CCCCN)C(N)=O [#5, GlyMetAlaDAlaDβNalAlaTrpDPheLysNH2] (HELM PEPTIDE1{G.M.A.[dA].[O=C([C@@H](Cc1ccc2ccccc2c1)N[*:1])[*:2]].A.W.[dF].K.[am]}$$$$V2.0; N-terminus assumed)
pIC50 [3]: 6.53
pKi [3]: 6.78
% INH, Ghrelin/GHS Antagonist Receptor Activity [3]: 94%

Compound: DesaminoTyr-DTrp-Ser-Trp-DPhe-NH2 [10-DesaminoTyr-DTrp-Ser-Trp-DPhe-NH2]
Stimulated GH release [4, 7]: 3258 ± 682 ng/mL

Compound: Y[dW][dW]FF-NH2 [12-Tyr-DTrp-DTrp-Phe-Phe-NH2]
Stimulated GH release [4, 7]: -167 ± 157 ng/mL

Compound: Gly-Met-Ala-Gly-Ser-(Dap-Palmityl)-Phe-Leu-Ser-Pro-Glu-His-NH2 (GMAGS[Dap(palmityl)]FLSPEH-NH2) [#6]
spontaneous growth hormone secretion / plasma GH levels [5]: did not inhibit
(cumulative) food intake [6]: did not inhibit GH secretion or decreased food intake

Continued, values first:

Stimulated Control GH release (stimulator *S alone) ([4]; Table 12, *S = Tyr-DTrp-Ala-Trp-DPhe-NH2 0.3 μg/ml): 2218 ± 194 ng/mL
Compound: Y[dW]AW[dF]-NH2 [reference compound]

pIC50 [3]: 6.55
pKi [3]: 6.80
% INH, Ghrelin/GHS Antagonist Receptor Activity [3]: 86%
Compound: CSCC[C@H](NC(=O)CN)C(=O)N[C@@H](C)C(=O)NCC(=O)N[C@@H](CO)C(=O)N[C@@H](Cc1c[nH]c2ccccc12)C(=O)N[C@@H](Cc1ccccc1)C(=O)N[C@@H](CC(C)C)C(=O)N[C@@H](CO)C(=O)N1CCC[C@H]1C(=O)N[C@@H](CCC(=O)O)C(=O)N[C@@H](Cc1c[nH]cn1)C(=O)N[C@@H](CCC(N)=O)C(=O)N[C@@H](CCCNC(=N)N)C(=O)N[C@H](C(=O)N[C@@H](CCC(N)=O)C(=O)N[C@@H](CCC(N)=O)C(=O)N[C@@H](CCCNC(=N)N)C(=O)N[C@@H](CCCCN)C(=O)N[C@@H](CCC(=O)O)C(=O)N[C@@H](CO)C(=O)N[C@@H](CCCCN)C(=O)N[C@@H](CCCCN)C(=O)N1CCC[C@H]1C(=O)N1CCC[C@H]1C(=O)N[C@@H](C)C(=O)N[C@@H](CCCCN)C(=O)N[C@@H](CC(C)C)C(=O)N[C@@H](CCC(N)=O)C(=O)N1CCC[C@H]1C(=O)N[C@@H](CCCNC(=N)N)C(=O)O)C(C)C [#7]

pIC50 [3]: 6.15
pKi [3]: 6.40
% INH, Ghrelin/GHS Antagonist Receptor Activity [3]: 89%
Compound: CSCC[C@H](NC(=O)CN)C(=O)N[C@@H](C)C(=O)N[C@H](C)C(=O)N[C@H](Cc1ccc2ccccc2c1)C(=O)N[C@H](CCCCN)C(=O)N[C@@H](Cc1c[nH]c2ccccc12)C(=O)N[C@H](Cc1ccccc1)C(=O)N[C@@H](CCCCN)C(N)=O [#6a, GlyMetAlaDAlaDβNalDLysTrpDPheLysNH2] (HELM PEPTIDE1{G.M.A.[dA].[O=C([C@@H](Cc1ccc2ccccc2c1)N[*:1])[*:2]].[dK].W.[dF].K.[am]}$$$$V2.0; N-terminus assumed)

Stimulated GH release ([4]; peptide antagonist 1 μg/ml + stimulator His-DTrp-Ala-Trp-DPhe-Lys-NH2 10 ng/ml): 324 ± 181 ng/mL
Compound: H[dW][dK]W[dF]K-NH2 [6-His-DTrp-DLys-Trp-DPhe-Lys-NH2]
